Measured values published in patent US10806794B2, “Protease inhibitors having enhanced features” (priority 2008, dated 2020).
Like-named read-outs stand apart in the source and are kept apart here.

Legend:
[1] = target: recombinant HIV-1 protease (Human immunodeficiency virus type 1 group M subtype B (isolate HXB2) (HIV-1), UniProt P04585); assay: Enzyme inhibition of purified HIV-1 protease (SensoLyte 520 HIV-Protease Assay Kit); type: biochemical; details: read-out: IC50 ± SD
Experimental: Protease inhibitors (PI) are used to treat HIV infection by preventing viral assembly and maturation through the inhibition of HIV-1 protease activity. Biochemical assays were performed to evaluate the potential of PEG-PI conjugates to inhibit HIV-1 protease activity, relative to their respective PI parent molecules. Activity assays were performed at using the SensoLyte 520 HIV-Protease Assay Kit (Anaspec Inc., San Jose, Calif.) and recombinant HIV-1 protease. Protease activity was monitored by the formation of a fluorescent reporter product generated during HIV-1 protease-mediated digestion of a quenched, fluorimetric substrate containing the p17/p24 Pr^gag cleavage site.

[2] = test system: human liver microsomal proteins; assay: Microsomal protein binding by equilibrium dialysis; type: in vitro ADME; details: human liver microsomes, 3 μM, fraction unbound
Experimental: PEGylated protease inhibitors were evaluated for their propensity to be bound by proteins in normal human plasma or in human liver microsome preparations using equilibrium dialysis analysis. For microsomal protein binding, test compound (final concentration=3 μM) was diluted into either buffer alone or buffer containing human liver microsomes. The protein-free and microsome-containing solutions were then added to either side of an equilibrium dialysis system and allowed to reach equilibrium at 37° C. The concentration of compound on both sides of the membrane at equilibrium was quantified by LC-MS/MS, and the fraction of compound that remains unbound (Fu) is calculated.

[3] = test system: HIV-1RF; assay: Anti-HIV cytoprotection in CEM-SS cells infected with HIV-1RF (XTT); type: cell-based; details: six days, XTT; read-out: CEM-SS/HIV-1RF EC50 ± SD
Experimental: (§1) To evaluate whether conjugated protease inhibitors retain the ability to protect against HIV-1 infection, CEM-SS cells infected with the RF strain of HIV-1 were treated with test compounds for six days, and then cell viability was monitored using the tetrazolium dye XTT. […] A value for Therapeutic Index (TI) was calculated as TC50/EC50.

[4] = test system: human plasma proteins; assay: Plasma protein binding by equilibrium dialysis, human plasma; type: in vitro ADME; details: human plasma, 5 μM, fraction unbound
Experimental: In assays to estimate binding of test compounds to plasma proteins, test compound solutions (5 μM) are prepared in buffer and species-specific plasma (final DMSO concentration 0.5%). The plasma-containing solution is added to one side of the membrane of an equilibrium dialysis system, and the plasma-free is added to the other side. Dialysis was allowed to reach equilibrium by incubation for two hours at 37° C. The concentration of compound on both sides of the membrane was measured using LC-MS/MS.

[5] = test system: CEM-SS cells
Experimental: as §1

[6] = target: CYP3A4 (Homo sapiens (Human), UniProt P08684); assay: CYP450 inhibition in human liver microsomes: CYP3A4;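 further: incubation at 37 °C started by adding 1 mM NADPH, with formation of the probe metabolite measured via LC-MS/MS or fluorescent detection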
Sequence of CYP3A4 (P08684 whole entry): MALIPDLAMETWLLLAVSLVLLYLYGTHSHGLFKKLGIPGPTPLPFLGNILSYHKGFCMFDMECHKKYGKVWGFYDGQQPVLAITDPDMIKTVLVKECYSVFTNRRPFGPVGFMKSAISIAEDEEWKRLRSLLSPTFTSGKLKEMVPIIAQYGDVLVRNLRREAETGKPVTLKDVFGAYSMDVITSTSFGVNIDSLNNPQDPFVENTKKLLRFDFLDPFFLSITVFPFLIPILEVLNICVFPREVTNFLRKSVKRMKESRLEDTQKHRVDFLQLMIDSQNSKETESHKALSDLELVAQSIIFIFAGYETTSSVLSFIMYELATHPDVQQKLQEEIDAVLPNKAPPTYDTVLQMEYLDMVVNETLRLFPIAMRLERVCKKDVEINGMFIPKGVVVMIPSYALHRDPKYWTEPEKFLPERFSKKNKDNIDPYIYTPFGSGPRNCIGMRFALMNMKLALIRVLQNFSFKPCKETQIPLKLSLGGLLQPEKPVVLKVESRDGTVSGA

[7] = test system: human hepatocytes; assay: Metabolic stability in cryopreserved human hepatocytes; details: human hepatocytes, 3 uM, incubated up to one hour
Experimental: Metabolism of PI conjugates was investigated by monitoring the levels of unmetabolized parent compound following incubation with cryopreserved human or monkey hepatocytes. The use of whole hepatocytes rather than microsomes requires that the drugs cross the cell membrane to interact with intracellularly-localized metabolic enzymes, and thus provides the most relevant in vitro system for understanding overall metabolic stability of these compounds.
Test compounds (0.1 μM or 3 μM, as indicated) are incubated with cryopreserved human hepatocytes at a cell density of 0.5×10^6 viable cells/mL. […] Duplicate samples (50 μL) are removed from the incubation mixture at various timepoints up to four hours (for 0.1 μM test compound concentration), or one or two hours (for 3 μM test compound concentration), and the reaction is quenched by the addition of methanol containing internal standard (100 μL). The samples are centrifuged (2500 rpm at 4° C. for 20 min), and the supernatants at each time point pooled for cassette analysis by LC-MS/MS.

[8] = test system: Caco-2 cells; assay: Bi-directional permeability in Caco-2 monolayers; details: for Efflux ratio (B→A/A→B): Caco-2 monolayers; for A→B, ×10^−6: human, Caco-2
Experimental: Absorption properties of various compounds were measured using bi-directional permeability assays in Caco-2 cells. […] The efflux ratio is calculated as the ratio of the Papp(B→A)/Papp(A→B).

[9] = test system: PBMCs; assay: PBMC macromolecule synthesis (tritiated precursor incorporation); type: cell-based, human; details: for Thymidine Incorporation (PBMC) TC50: DNA synthesis; for Uridine Incorporation (PBMC) TC50: RNA synthesis; for Leucine Incorporation (PBMC) TC50: protein synthesis
Experimental: Cellular macromolecule synthesis was evaluated using tritiated precursor incorporation assays. PBMCs (5×10^4 cells/well) were cultured in the presence or absence of test compound for 7 days at 37 C, 5% CO2 in a 96-well microtiter plate. On day 6 of the incubation, 1 uCi of [methyl-3H]-thymidine for DNA synthesis, [5-3H]-uridine for RNA synthesis, or [3,4,5-3H]-leucine for protein synthesis was added to compound-treated cells, and the plate was further incubated for 16 hours. The cells were transferred to a glass fiber filtermat using an Inotech cell harvester. The filtermats were washed with distilled water then sealed in a bag with scintillation fluid. Incorporated radioactivity was measured using a Wallac scintillation counter.

[10] = test system: PBMCs; assay: PBMC cytotoxicity (XTT); type: cell-based, human; details: 7 days
Experimental: Mononuclear cells were isolated from fresh human peripheral blood cells by Ficoll-Hypaque density gradient by centrifugation at 600 g for 30 minutes. Banded peripheral blood mononuclear cells (PBMCs) were aspirated from the resulting interface and washed with phosphate buffered saline by low speed centrifugation. Cell viability was evaluated by Trypan Blue dye exclusion. […] Plates were incubated at 37° C., 5% CO2 for 7 days prior to cytotoxicity evaluation. XTT measurement for cytotoxicity.

[11] = read-out: CYP3A4 IC50 Midazolam, probe substrate midazolam
[12] = read-out: CYP3A4 IC50 Testosterone, probe substrate testosterone

| Molecule | IC50 [1] [nM] | Microsomal Protein Binding Fu ± SD [2] | EC50 [3] [nM] | Plasma Protein Binding Fu ± SD [4] | CEM-SS TC50 ± SD ([5]; absence of viral infection) [nM] | IC50 [6, 11] [nM] | IC50 [6, 12] [nM] | CLint ± SEM [7] [μL/min/10^6 cells] | CEM-SS TC50 ± SD [5] [nM] | Efflux ratio (B→A/A→B) [8] | A→B, ×10^−6 [8] [cm/s] | Thymidine Incorporation (PBMC) TC50 [9] [%] | Uridine Incorporation (PBMC) TC50 [9] [%] | Leucine Incorporation (PBMC) TC50 [9] [%] | XTT (PBMC) TC50 [10] [%] |
| --- | --- | --- | --- | --- | --- | --- | --- | --- | --- | --- | --- | --- | --- | --- | --- |
| CCC(C1=C(O)CC(CCCNC(=O)OCCOCCOCCOCCOCCOC)(CCc2ccccc2)OC1=O)c1cccc(NS(=O)(=O)c2ccc(C(F)(F)F)cn2)c1 (mixture of isomers) [mPEG5-OCO—NH-Tipranavir] | 0.462 | highly unbound | 1060 | 0.0304 ± 0.000274 | 86100 |  |  |  |  |  |  |  |  |  |  |
| CCC(C1=C(O)CC(CCCNC(=O)OCCOCCOCCOC)(CCc2ccccc2)OC1=O)c1cccc(NS(=O)(=O)c2ccc(C(F)(F)F)cn2)c1 (mixture of isomers) [mPEG3-OCO—NH-Tipranavir] | 0.617 | 0.816 ± 0.0104 | 870 | 0.0292 ± 0.000428 | 67600 |  |  |  |  |  |  |  |  |  |  |
| CCC(C1=C(O)CC(CCCNC(=O)OC)(CCc2ccccc2)OC1=O)c1cccc(NS(=O)(=O)c2ccc(C(F)(F)F)cn2)c1 (mixture of isomers) [mPEG0-OCO—NH-Tipranavir] | 0.292 | 0.887 ± 0.0749 | 290 | 0.0105 ± 0.00848 | 54300 |  |  |  |  |  |  |  |  |  |  |
| CCC[C@@]1(CCc2ccccc2)CC(O)=C([C@H](CC)c2cccc(N(CCOCCOCCOCCOCCOCCOCCOC)S(=O)(=O)c3ccc(C(F)(F)F)cn3)c2)C(=O)O1 [mPEG7-amide-Tipranavir] | 12.2 | highly unbound | > 200000 | 0.029 ± 0.00436 |  | 2600 | ~4000 | 0.162 ± 0.343 | 14500 |  |  |  |  |  |  |
| COCCOCCOCCOCCOCCOC(=O)N[C@@H](C(=O)NC(Cc1ccccc1)[C@@H](O)CN(Cc1ccc(-c2ccccn2)cc1)NC(=O)[C@H](NC(=O)OCCOCCOCCOCCOCCOC)C(C)(C)C)C(C)(C)C (some centres unmarked) [di-mPEG5-Atazanavir] | 17.3 | highly unbound | 1110 | 0.537 ± 0.0412 |  | > 50000 | > 50000 | 0.824 ± 0.950 | >200000 | >10.8 | 0.06 |  |  |  |  |
| CCCC1(CCc2ccccc2)CC(O)=C(C(CC)c2cccc(N(CCOCCOCCOCCOCCOC)S(=O)(=O)c3ccc(C(F)(F)F)cn3)c2)C(=O)O1 (centres unmarked) [mPEG5-amide-Tipranavir] |  | highly unbound | > 200000 | 0.0308 ± 0.00399 |  | 1700 | 2800 | 3.62 ± 0.527 | 12800 |  |  |  |  |  |  |
| CCCC1(CCc2ccccc2)CC(O)=C(C(CC)c2cccc(N(CCOCCOCCOC)S(=O)(=O)c3ccc(C(F)(F)F)cn3)c2)C(=O)O1 (centres unmarked) [mPEG3-amide-Tipranavir] |  | 0.73 ± 0.0153 | 80 | 0.014 ± 0.00166 |  | 2500 | ~2100 | 1.66 ± 1.24 | 1300 |  |  |  |  |  |  |
| COCCOCCOCCOCCOCCOCCOCCOC(=O)N[C@@H](C(=O)NC(Cc1ccccc1)[C@@H](O)CN(Cc1ccc(-c2ccccn2)cc1)NC(=O)[C@H](NC(=O)OCCOCCOCCOCCOCCOCCOCCOC)C(C)(C)C)C(C)(C)C (some centres unmarked) [di-mPEG7-Atazanavir] | 10.9 | highly unbound | 8350 | highly unbound |  | > 50000 | > 50000 |  | >200000 | >3.6 | 0.06 |  |  |  |  |
| C[S+](C)[O-] [DMSO, reference compound] |  |  |  |  |  |  |  |  |  |  |  | >2.0 | 0.06 | 0.19 | >2.0 |
| Triton X-100 [reference compound] |  |  |  |  |  |  |  |  |  |  |  | 0.002 | 0.0009 | 0.0006 | 0.003 |
| COCCOCCOCCOCCOCCOCCOC(=O)N[C@@H](C(=O)NC(Cc1ccccc1)[C@@H](O)CN(Cc1ccc(-c2ccccn2)cc1)NC(=O)[C@H](NC(=O)OCCOCCOCCOCCOCCOCCOC)C(C)(C)C)C(C)(C)C (some centres unmarked) [di-mPEG6-Atazanavir] | 15.6 | highly unbound | 2540 | 0.868 ± 0.0163 |  |  |  |  | 158600 |  |  |  |  |  |  |
| CCC(C1=C(O)CC(CCCNC(=O)OCCOC)(CCc2ccccc2)OC1=O)c1cccc(NS(=O)(=O)c2ccc(C(F)(F)F)cn2)c1 (mixture of isomers) [mPEG1-OCO—NH-Tipranavir] | 0.188 | 0.85 ± 0.184 | 120 | 0.0145 ± 0.000403 | 49500 |  |  |  |  |  |  |  |  |  |  |
